Data published in US9486438B2, “Combination dosage forms and therapies for supporting bone health” (Primus Pharmaceuticals Inc., priority 2008, dated 2016).

Experiments:
[1] = tested on: younger postmenopausal women; details: 10 000 U vitamin D3/wk added to calcium 1000 mg/d, postmenopausal women (age: 56 y); Cooper et al. 2003; cited from earlier work
[2] = vitamin D3 added to estrogen therapy; Tuppurainen et al. 1998; cited from earlier work
[3] = Ensrud et al., J Bone Miner Res. 2004; cited from earlier work
post-menopausal women = details: administered for one year to post-menopausal women; Morabito et al. 2002; cited from earlier work
ovariectomized rats [4] = assay: Genistein dose-ranging preclinical study: serum markers of bone resorption and formation; type: in vivo, Sprague-Dawley rats
Method: (§1) This study was carried out to evaluate the effects of different human dose equivalents of genistein (aglycone) alone, or in combination with supplemental calcium carbonate and vitamin D3, on bone density, markers, and histology in ovariectomized rats. Forty-eight three month old ovariectomized (OVX) female Sprague-Dawley rats were purchased from Charles River Laboratories. Animals were maintained in plastic cages under standard environmental conditions with water and standard rat chow available ad libitum at the Animal Facility of the Department of Clinical and Experimental Medicine and Pharmacology of the University of Messina, Messina, Italy. After 1 week of acclimation, animals were randomly assigned to 12 different treatment groups that lasted for 6 weeks as summarized in Table 1 below:
(§2) Genistein doses were converted into human equivalents by using the following formula: (human dose in mg/m^2)=(kin)×(dose in mg/kg) where human m^2 for a person of 60 kg (considered as a medium weight for our cohort of post-menopausal women) is 1.62 and km is the conversion factor (for a rat of 250 gr is 7.0) {Freireich, 1966 4611/id. Genistein was diluted in a 1:1 solution of 0.9% NaCl and DMSO and administered by intraperitoneal injection. Animals received 50% supplementation of their normal daily intake of calcium and vitamin D3 (50.4 IU/kg/day) by oral gavage, which equated to 366.52 mg/kg/day of calcium and 50.4 IU/kg/day of vitamin D3.
(§3) Bone mineral density of the right femur was measured using dual-energy X-ray absorptiometry. The coefficient of variation for femur BMD was 1.16%. Animals were maintained under controlled conditions for 6 weeks, at the end of the experiments were sacrificed under general anaesthesia (with chloral hydrate 400 mg/kg/ip) after blood collection by cardiac puncture. Blood was centrifuged and serum stored immediately at −20° C. for analysis. Serum was used to quantify markers of bone resorption [soluble receptor activator of nuclear factor kappaB ligand (sRANKL) and C-terminal telopeptide (CTX)] and formation [bone-specific alkaline phosphatase and osteoprotegerin (OPG)].

ovariectomized rats [5] = assay: Genistein dose-ranging preclinical study: bone mineral density of the right femur by dual-energy X-ray absorptiometry; type: in vivo, Sprague-Dawley rats
Method: as §1, §2, §3

[6] = tested on: ovariectomized (OVX) female Sprague-Dawley rats; assay: Genistein bone architecture study: femoral head histology; type: in vivo; details: human equivalent dose of 54 mg/day (4.76 mg/kg/day i.p.), photomicrographs, preliminary evidence, to approximately that of non-ovariectomized animal
Description: Three month old ovariectomized (OVX) female Sprague-Dawley rats were purchased from Charles River Laboratories. Animals were maintained in plastic cages under standard environmental conditions with water and standard rat chow available ad libitum at the Animal Facility of the Department of Clinical and Experimental Medicine and Pharmacology of the University of Messina, Messina, Italy.
Dose Calculation—Genistein doses were converted into animal equivalents by using the following formula: (human dose in mg/m^2)=(km)×(dose in mg/kg) where human m^2 for a person of 60 kg (considered as a medium weight for our cohort of post-menopausal women) is 1.62 and km is the conversion factor (for a rat of 250 gr is 7.0) {Freireich, 1966 4611/id}. Therefore, animals given the human equivalent of 54 mg/day were administered 4.76 mg/kg/day. Genistein was diluted in a 1:1 solution of 0.9% NaCl and DMSO and administered by intraperitoneal injection in a volume of […].
Histology—Rat femora decalcified in 4% EDTA for approximately 1 week and then processed for routine paraffin embedding following standard procedures. Sections were cut at the femoral head just proximal to the coxofemoral joint and stained with hematoxylin and eosin.

[7] = serum, OVX rats, genistein 0-1000 mg/day human dose equivalents i.p., 6 weeks, p<0.001, FIG. 1

## C=C1CC[C@H](O)C/C1=C/C=C1\CCC[C@]2(C)[C@@H]([C@H](C)CCCC(C)C)CC[C@@H]12 [vitamin D3]
[1]
  bone mineral density beyond calcium supplementation alone: did not confer benefits
[2]
  lumbar or femoral bone mineral density changes: no statistically significant improvement

## NCCCC(O)(P(=O)(O)O)P(=O)(O)O [alendronate]
[3]
  reducing fractures beyond 5 years of treatment: no benefit

## O=c1c(-c2ccc(O)cc2)coc2cc(O)cc(O)c12 [genistein, 4′,5,7-trihydroxyisoflavone]
post-menopausal women
  bone mineral density: improve
  several biochemical markers of bone health: improve
Ovariectomized rats [4]; OVX rats, genistein i.p., 6 weeks, p<0.001, FIG. 3
  RANKL/OPG ratio: decreased
Ovariectomized rats [4]; bone markers, BMD and RANKL/OPG ratio, no further significant improvement beyond this dose by post-hoc testing
  dose at which the genistein effect reached a plateau: 54 mg human dose equivalent
Ovariectomized rats [4]; [7]
  Bone specific alkaline phosphatase (marker of bone formation): dose-dependently increased
  CTX (marker of bone resorption): decreased
  osteoprotegerin (marker of bone formation): dose-dependently increased
  sRANKL (marker of bone resorption): decreased
Ovariectomized rats [5]; equivalent of 54 mg genistein per day, only group showing it
  BMD when supplemented with vitamin D3 and calcium: statistically significant preservation
Ovariectomized rats [5]; femur, OVX rats, genistein i.p., 6 weeks, p<0.001, FIG. 2
  bone mineral density: increases
Ovariectomized rats [5]; genistein 27, 200, 500 and 1,000 mg human equivalent doses, even worsened in some instances
  BMD when supplemented with vitamin D3 or calcium: no improvement
Ovariectomized rats [5]; genistein at 54 mg/day and above (human dose equivalents)
  BMD over 6 weeks in calcium and vitamin D3-replete rats: significant increases
[6]
  trabecular architecture (trabecular rod number and thickness) of femoral head: restores trabecular architecture
